Reference: paper PMC10247784, “Physiological activation of human and mouse bitter taste receptors by bile acids” (Communications Biology, 2023)
Where two headings read alike, the source gives them in different places.

Target: T1, mouse Tas2r117 (Mus musculus, UniProt Q7M715)
T1 construct: expressed in transfected cells; host or cells: HEK293T-Gα16gust44
T1 sequence (Q7M715 1-330): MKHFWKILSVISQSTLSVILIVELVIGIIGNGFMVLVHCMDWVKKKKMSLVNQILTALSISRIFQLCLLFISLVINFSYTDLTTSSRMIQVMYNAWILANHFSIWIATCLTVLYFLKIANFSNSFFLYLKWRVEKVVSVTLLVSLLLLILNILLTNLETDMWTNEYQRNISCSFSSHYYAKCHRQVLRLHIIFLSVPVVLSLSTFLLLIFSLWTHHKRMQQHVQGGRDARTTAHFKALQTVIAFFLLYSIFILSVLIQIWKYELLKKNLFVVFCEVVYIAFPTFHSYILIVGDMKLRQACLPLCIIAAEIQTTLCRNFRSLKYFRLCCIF
Test: Calcium imaging assay (FLIPR), HEK293T-Gα16gust44 cells transfected with mouse Tas2r117
Assay type: cell-based
Description: This set of bile acids was chosen because of their commercial availability in high purities, their diversity within the class of bile acids and their previous detection and quantitation in human blood. Stock solutions were prepared in DMSO.
As basal growth medium for the HEK293T-Gα16gust44 cell line[17],[59] served Dulbecco’s modified eagle medium (DMEM) (Thermo Fisher Scientific, Darmstadt, Germany) supplemented with 10 % fetal bovine serum (Sigma-Aldrich, Steinheim, Germany), 2 mM L-glutamine (Sigma-Aldrich, Steinheim, Germany), 100 units/ml penicillin (Sigma Aldrich, Steinheim, Germany) and 100 µg/ml streptomycin (Sigma Aldrich, Steinheim, Germany). Growth conditions were 37 °C, 5 % CO2 and saturated air-humidity[60].
HEK293T-Gα16gust44 cells were seeded on poly-D-lysine (10 µg/ml) coated 96-well plates to reach a confluence of 40-60 % the next day. For transient transfection 150 ng of plasmid DNA containing the receptor of interest and 0.3 µl lipofectamine 2000 (Thermo Fisher Scientific, Darmstadt, Germany) per well were used and transfection took place according to the manual of lipofectamine 2000. […] The empty vector DNA (mock) was transfected as negative control[14],[41].
Cells were loaded using the calcium-sensitive fluorescent dye Fluo-4-AM (Abcam, Cambridge, Great Britain) in the presence of 2.5 mM probenecid (Sigma-Aldrich, Steinheim, Germany) the day after transfection[13],[41]. 1 h after loading, cells were washed with C1 buffer using a BioTek Cell Washer, incubated in the dark for half an hour and washed again. For automated agonist application and measurement of fluorescence changes, a FLIPR^TETRA device (Molecular Devices, San José, United States) was used. Viability of cells was tested by application of 100 nM Somatostatin 14 (Bachem, Bubendorf, Switzerland)[42].
Measured data were negative control corrected by subtracting the signal of the mock-transfected cells and exported to Microsoft Excel using the FLIPR software ScreenWorks 4.2. In Microsoft Excel software, standardization of maximum fluorescence intensities to the basal fluorescence and normalization to the buffer-only control was done to calculate the relative fluorescence changes (ΔF/F).
Initial screening experiments performed in duplicate wells were confirmed by at least one replication and representative traces were selected for display. All dose-response relationships were determined by three independent experiments (biological replicates) performed in duplicates (technical replicates). Threshold concentrations, defined as lowest substance concentrations leading to statistically significant elevated fluorescence changes in receptor-transfected cells compared with empty vector-transfected cells, were determined using SigmaPlot with Student’s t-test to evaluate statistical significance (p < 0.01).

C[C@H](CCC(=O)O)[C@H]1CC[C@H]2[C@@H]3[C@H](O)C[C@@H]4C[C@H](O)CC[C@]4(C)[C@H]3C[C@H](O)[C@]12C [Cholic Acid, cholic acid]
EC50: 20.6 ± 5.1 µM | RLU: 487.07 RLU | RLU (Time (s) 0, sheet Tas2r117, time trace): 0 RLU | RLU (Time (s) 2, sheet Tas2r117, time trace): 4.604 RLU | RLU (Time (s) 4, sheet Tas2r117, time trace): 10.2904 RLU | RLU (Time (s) 6, sheet Tas2r117, time trace): -0.8806 RLU | RLU (Time (s) 8, sheet Tas2r117, time trace): 6.861 RLU | RLU (Time (s) 12, sheet Tas2r117, time trace): -14.1517 RLU | RLU (Time (s) 14, sheet Tas2r117, time trace): 7.665 RLU | RLU (Time (s) 16, sheet Tas2r117, time trace): -9.341 RLU | RLU (Time (s) 18, sheet Tas2r117, time trace): -12.0783 RLU | RLU (Time (s) 18.797, sheet Tas2r117, time trace): -24.6076 RLU | RLU (Time (s) 20.797, sheet Tas2r117, time trace): -3.383 RLU | RLU (Time (s) 22.797, sheet Tas2r117, time trace): 39.9085 RLU | RLU (Time (s) 24.797, sheet Tas2r117, time trace): 65.6016 RLU | RLU (Time (s) 26.797, sheet Tas2r117, time trace): 75.6489 RLU | RLU (Time (s) 28.797, sheet Tas2r117, time trace): 128.888 RLU | RLU (Time (s) 30.797, sheet Tas2r117, time trace): 168.759 RLU | RLU (Time (s) 32.797, sheet Tas2r117, time trace): 221.976 RLU | RLU (Time (s) 34.797, sheet Tas2r117, time trace): 270.035 RLU | RLU (Time (s) 36.797, sheet Tas2r117, time trace): 288.662 RLU | RLU (Time (s) 38.797, sheet Tas2r117, time trace): 310.785 RLU | RLU (Time (s) 40.797, sheet Tas2r117, time trace): 342.959 RLU | RLU (Time (s) 42.797, sheet Tas2r117, time trace): 363.04 RLU | RLU (Time (s) 44.797, sheet Tas2r117, time trace): 380.411 RLU | RLU (Time (s) 46.797, sheet Tas2r117, time trace): 395.355 RLU | RLU (Time (s) 48.797, sheet Tas2r117, time trace): 398.151 RLU | RLU (Time (s) 50.797, sheet Tas2r117, time trace): 423.224 RLU | RLU (Time (s) 52.797, sheet Tas2r117, time trace): 441.862 RLU | RLU (Time (s) 54.797, sheet Tas2r117, time trace): 446.522 RLU | RLU (Time (s) 56.797, sheet Tas2r117, time trace): 453.199 RLU | RLU (Time (s) 58.797, sheet Tas2r117, time trace): 444.318 RLU | RLU (Time (s) 60.797, sheet Tas2r117, time trace): 456.236 RLU | RLU (Time (s) 62.797, sheet Tas2r117, time trace): 461.012 RLU | RLU (Time (s) 64.797, sheet Tas2r117, time trace): 474.623 RLU | RLU (Time (s) 66.797, sheet Tas2r117, time trace): 445.559 RLU | RLU (Time (s) 70.797, sheet Tas2r117, time trace): 480.113 RLU | RLU (Time (s) 72.797, sheet Tas2r117, time trace): 466.131 RLU | RLU (Time (s) 74.797, sheet Tas2r117, time trace): 473.506 RLU | RLU (Time (s) 76.797, sheet Tas2r117, time trace): 498.186 RLU | RLU (Time (s) 78.797, sheet Tas2r117, time trace): 506.034 RLU | RLU (Time (s) 80.797, sheet Tas2r117, time trace): 507.589 RLU | RLU (Time (s) 82.797, sheet Tas2r117, time trace): 514.994 RLU | RLU (Time (s) 84.797, sheet Tas2r117, time trace): 484.679 RLU | RLU (Time (s) 86.797, sheet Tas2r117, time trace): 500.585 RLU | RLU (Time (s) 88.797, sheet Tas2r117, time trace): 496.095 RLU | RLU (Time (s) 90.797, sheet Tas2r117, time trace): 517.962 RLU | RLU (Time (s) 92.797, sheet Tas2r117, time trace): 513.104 RLU | RLU (Time (s) 94.797, sheet Tas2r117, time trace): 501.803 RLU | RLU (Time (s) 96.797, sheet Tas2r117, time trace): 495.693 RLU | RLU (Time (s) 98.797, sheet Tas2r117, time trace): 496.063 RLU | RLU (Time (s) 100.797, sheet Tas2r117, time trace): 476.828 RLU | RLU (Time (s) 102.797, sheet Tas2r117, time trace): 478.659 RLU | RLU (Time (s) 104.797, sheet Tas2r117, time trace): 493.353 RLU | RLU (Time (s) 106.797, sheet Tas2r117, time trace): 481.214 RLU | RLU (Time (s) 108.797, sheet Tas2r117, time trace): 477.549 RLU | RLU (Time (s) 110.797, sheet Tas2r117, time trace): 489.03 RLU | RLU (Time (s) 112.797, sheet Tas2r117, time trace): 467.178 RLU | RLU (Time (s) 114.797, sheet Tas2r117, time trace): 460.468 RLU | RLU (Time (s) 116.797, sheet Tas2r117, time trace): 475.775 RLU | RLU (Time (s) 118.797, sheet Tas2r117, time trace): 475.734 RLU | RLU (Time (s) 120.797, sheet Tas2r117, time trace): 478.85 RLU | RLU (Time (s) 122.797, sheet Tas2r117, time trace): 455.77 RLU | RLU (Time (s) 124.797, sheet Tas2r117, time trace): 448.646 RLU | RLU (Time (s) 126.797, sheet Tas2r117, time trace): 473.935 RLU | RLU (Time (s) 128.797, sheet Tas2r117, time trace): 443.919 RLU | RLU (Time (s) 130.797, sheet Tas2r117, time trace): 439.491 RLU | RLU (Time (s) 132.797, sheet Tas2r117, time trace): 446.634 RLU | RLU (Time (s) 134.797, sheet Tas2r117, time trace): 438.919 RLU | RLU (Time (s) 136.797, sheet Tas2r117, time trace): 440.652 RLU | RLU (Time (s) 137.562, sheet Tas2r117, time trace): 432.872 RLU | RLU (Time (s) 143.578, sheet Tas2r117, time trace): 412.03 RLU | RLU (Time (s) 149.578, sheet Tas2r117, time trace): 376.064 RLU | RLU (Time (s) 155.578, sheet Tas2r117, time trace): 372.116 RLU | RLU (Time (s) 161.578, sheet Tas2r117, time trace): 346.14 RLU | RLU (Time (s) 167.578, sheet Tas2r117, time trace): 348.952 RLU | RLU (Time (s) 173.578, sheet Tas2r117, time trace): 334.535 RLU | RLU (Time (s) 179.578, sheet Tas2r117, time trace): 329.157 RLU | RLU (Time (s) 191.578, sheet Tas2r117, time trace): 289.619 RLU | RLU (Time (s) 197.578, sheet Tas2r117, time trace): 289.013 RLU | RLU (Time (s) 209.578, sheet Tas2r117, time trace): 239.803 RLU | RLU (Time (s) 221.578, sheet Tas2r117, time trace): 142.758 RLU | RLU (Time (s) 233.578, sheet Tas2r117, time trace): 144.622 RLU | RLU (Time (s) 239.578, sheet Tas2r117, time trace): 165.061 RLU | RLU (Time (s) 245.578, sheet Tas2r117, time trace): 139.32 RLU | RLU (Time (s) 293.578, sheet Tas2r117, time trace): 116.805 RLU | RLU (Time (s) 299.578, sheet Tas2r117, time trace): 113.227 RLU | RLU (Time (s) 305.578, sheet Tas2r117, time trace): 94.7752 RLU | RLU (Time (s) 311.578, sheet Tas2r117, time trace): 118.792 RLU | RLU (Time (s) 317.578, sheet Tas2r117, time trace): 98.6072 RLU | RLU (Time (s) 323.578, sheet Tas2r117, time trace): 115.27 RLU | RLU (Time (s) 329.578, sheet Tas2r117, time trace): 87.0157 RLU | RLU (Time (s) 335.578, sheet Tas2r117, time trace): 73.721 RLU | RLU (Time (s) 341.578, sheet Tas2r117, time trace): 98.5271 RLU | RLU (Time (s) 347.578, sheet Tas2r117, time trace): 75.5864 RLU | RLU (Time (s) 353.578, sheet Tas2r117, time trace): 82.9151 RLU | RLU (Time (s) 359.578, sheet Tas2r117, time trace): 69.2265 RLU | Activation threshold concentration Tas2r117 (p < 0.01 vs empty vector): 10 µM
